Tests used:
Oryctolagus cuniculus = species: Oryctolagus cuniculus; test: Anti-platelet activity was measured by studying their antagonist effects on rabbit platelets aggregated with U-46,619.; assay type: functional
Homo sapiens = species: Homo sapiens; test: Anti-platelet activity was measured by studying their antagonist effects on human platelets aggregated with collagen; assay type: functional

IC50 (Oryctolagus cuniculus) [µM] | IC50 (Homo sapiens) [µM] | Compound
4 | – | CCCCC/C=C\C[C@@H](O)/C=C/C=C\C/C=C\CCCC(=O)O
0.5 | 27 | CCCCCC(O)c1cccc(CCCCCC(=O)O)c1 (stereo not given)
0.9 | 20 | CCCCCC(O)c1cccc(/C=C\CCCC(=O)O)c1 (stereo not given)
1.6 | 57 | CCCCCC(O)c1cccc(/C=C\CCCC(=O)O)n1 (stereo not given)
0.5 | 7 | CCCCCC(=O)c1cccc(/C=C\CCCC(=O)O)c1
– | 0.05 | O=C(O)CCn1c2c(c3ccccc31)CC(NS(=O)(=O)c1ccc(F)cc1)CC2 (single isomer, unassigned) [RAMATROBAN]

— ChEMBL document CHEMBL1136030, “Synthesis and antiaggregant properties of Stabilized analogues of polyunsaturated fatty acid metabolites” (Bioorg Med Chem Lett, 2002)
